From article PMC11094793, “Discovery of LLC0424 as a Potent and Selective in Vivo NSD2 PROTAC Degrader” (Journal of Medicinal Chemistry, 2024)

Experiments:
GSPT1 = biological target: T1, GSPT1 (Homo sapiens, UniProt P15170); experiment: GSPT1 level by proteomics and immunoblotting; type: cell-based; conditions: 2 μM
T1 construct: endogenous in cells; host or cells: RPMI-8402, SEM, VCaP
Protocol: We conducted a global proteomic assay using tandem mass tags (TMT) labeled mass-spectrometry to unbiasedly quantify the protein change upon LLC0424 treatment in VCaP and RPMI-8402 cells. […] We further used SEM cell line to cross-validate the selectivity of LLC0424 for NSD2 over NSD1 and NSD3 as well as CRBN neo-substrates IKZF1, IKZF3, GSPT1, and CK-1α using immunoblotting. […] When we increased the treatment time of LLC0424 in SEM cells, we observed mild decrease of GSPT1 from 12 h (SI, Figure S3F).
NSD2 is the primary methyltransferase that transfers dimethyl to H3K36 in ALL with NSD2 gain-of-function mutation. Therefore, the effects of LLC0424 on H3K36me2 was evaluated in SEM and RPMI-8402 cells. […] Meanwhile, LLC0424 treatment also led to downregulation of H3K36Me2 in RPMI-8402 cells within 24 h (Figure 6B). […] We also conducted a colony formation assay to evaluate the effect of LLC0424 on the stem cell-like property of the leukemia cells. […] As LLC0424 leads to strong degradation of both NSD2-L and NSD2-S, the phenotypic changes upon LLC0424 treatment result from complete inactivation of NSD2 activity, including adaptor-like function of NSD2-S and SET-domain dependent enzymatic function of NSD2-L. The specific contributions of NSD2 isoforms warrant future investigation. To characterize the genes affected by LLC0424 treatment, we performed global transcriptome analysis of SEM cells treated by DMSO, LLC0424, or LLC0424N. LLC0424 treatment led to significant changes in the transcriptome of SEM cells with over 326 differentially expressed genes. […] We further explored the contribution of NSD2 loss to the phenotype we observed in SEM cells. […] Still, whether and how LLC0424’s modest effect on GSPT1 contributes to the cytotoxic effects remains to be further explored. We also designed and synthesized the negative control LLC0877 bearing the warhead that is devoid of NSD2 binding (SI, Figure S5A).
After treatment, the cultured cells were collected and rinsed with phosphate-buffered saline (PBS) in room temperature. The cells were treated with RIPA buffers (ThermoFisher Scientific) supplemented with Halt Protease and Phosphatase Inhibitor Cocktail (ThermoFisher Scientific). After sonication and centrifugation, the total amount of protein in the cell lysates was measured by Pierce Bovine Serum Albumin Standard Pre-Diluted Set (ThermoFisher Scientific). After mixed with LDS-sample buffer (Invitrogen) supplemented with Sample Reducing Agent (Invitrogen) and heated in 70 °C for 10 min, equal amount of protein was loaded into NuPAGE 4–12%, Bis-Tris Protein Gel (ThermoFisher Scientific) or NuPAGE 3–8%, Tris-Acetate Protein Gel (ThermoFisher Scientific), and blotted with primary antibodies. […]

H3K36me2 = H3K36me2 level by immunoblotting; type: cell-based, human; conditions: 2 μM
Protocol: NSD2 is the primary methyltransferase that transfers dimethyl to H3K36 in ALL with NSD2 gain-of-function mutation. Therefore, the effects of LLC0424 on H3K36me2 was evaluated in SEM and RPMI-8402 cells. […] Meanwhile, LLC0424 treatment also led to downregulation of H3K36Me2 in RPMI-8402 cells within 24 h (Figure 6B). […] We also conducted a colony formation assay to evaluate the effect of LLC0424 on the stem cell-like property of the leukemia cells. […] As LLC0424 leads to strong degradation of both NSD2-L and NSD2-S, the phenotypic changes upon LLC0424 treatment result from complete inactivation of NSD2 activity, including adaptor-like function of NSD2-S and SET-domain dependent enzymatic function of NSD2-L. The specific contributions of NSD2 isoforms warrant future investigation. To characterize the genes affected by LLC0424 treatment, we performed global transcriptome analysis of SEM cells treated by DMSO, LLC0424, or LLC0424N. LLC0424 treatment led to significant changes in the transcriptome of SEM cells with over 326 differentially expressed genes. […]
After treatment, the cultured cells were collected and rinsed with phosphate-buffered saline (PBS) in room temperature. […] After sonication and centrifugation, the total amount of protein in the cell lysates was measured by Pierce Bovine Serum Albumin Standard Pre-Diluted Set (ThermoFisher Scientific). […]

RPMI-8402 cells = experiment: Cell viability assay (CellTiter-Glo, 7 days), RPMI-8402; type: cell-based, human; conditions: Homo sapiens, 168 h, read-out: IC50 (growth, cell viability)
Protocol: Cells were plated in 50 μL of the corresponding media in 96-well plates. A 2-fold dilution series of 2* concentrated LLC0424 was prepared in a medium with the highest concentration being 60 μM. Then 50 μL of the 2× compound-containing mixture was added to each well with 6 replicates for each concentration, reaching 1× concentration, with the highest concentration being 30 μM. The plate was incubated for 7 days. At the end point, the CellTiter-Glo assay (Promega) was then performed according to the manufacturer’s instruction to determine cell proliferation. The luminescence signal intensity of each well was acquired on an Infinite M1000Pro microplate reader and the data was analyzed using GraphPad Prism software (GraphPad Software).

SEM cells = experiment: Proliferation assay (CellTiter-Glo, 9 days), SEM; type: cell-based, human; conditions: 5 μM (Fig 6E) or 2 μM (Fig S4A)
Protocol: 2 × 10^3 cells per well were seeded in 5 replicates into 96-well plates and treated with 5 μM of the compound. Every 4 days, we added the compound with 5 μL of the 20* compound-containing mixture, reaching 1*concentration. Cell proliferation was evaluated by CellTiter-Glo assay (Promega).

T1 sequence (P15170 whole entry): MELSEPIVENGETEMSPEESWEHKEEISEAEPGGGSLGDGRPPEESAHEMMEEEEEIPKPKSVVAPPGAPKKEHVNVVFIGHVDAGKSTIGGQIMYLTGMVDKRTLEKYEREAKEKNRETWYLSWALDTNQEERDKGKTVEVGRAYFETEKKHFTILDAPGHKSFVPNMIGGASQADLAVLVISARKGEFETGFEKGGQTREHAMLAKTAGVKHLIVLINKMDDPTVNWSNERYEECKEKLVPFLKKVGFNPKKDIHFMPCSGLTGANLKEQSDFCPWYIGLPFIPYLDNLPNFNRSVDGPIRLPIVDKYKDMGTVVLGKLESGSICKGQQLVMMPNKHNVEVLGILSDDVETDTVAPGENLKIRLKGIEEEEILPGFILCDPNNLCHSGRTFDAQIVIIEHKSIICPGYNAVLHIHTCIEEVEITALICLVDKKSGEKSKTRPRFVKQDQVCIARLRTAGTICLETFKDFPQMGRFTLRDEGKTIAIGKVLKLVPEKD

- GSPT1 level (GSPT1; RPMI-8402 cells, global proteomics and immunoblotting): significant decrease
- GSPT1 level on longer treatment (GSPT1; SEM cells, from 12 h): mild decrease
- GSPT1 degradation (GSPT1; SEM or VCaP cells, as long as 8 h): did not induce GSPT1 degradation
SMILES: O=C1CCC(N2C(=O)c3ccc(N4CCC(NC(=O)c5ccc(NC(=O)c6ccc(CN(C(=O)c7ccc8c(c7)OCC(=O)N8)C7CC7)cc6)cc5)CC4)cc3C2=O)C(=O)N1 (stereo not shown) [compound 10l, N-Cyclopropyl-N-(4-((4-((1-(2-(2,6-dioxopiperidin-3-yl)-1,3-dioxoisoindolin-5-yl)piperidin-4-yl)carbamoyl)phenyl)carbamoyl)benzyl)-3-oxo-3,4-dihydro-2H-benzo[b][1,4]oxazine-7-carboxamide]
- H3K36Me2 level (H3K36me2; RPMI-8402 cells, within 24 h): downregulation
- H3K36Me2 level (H3K36me2; SEM cells, as long as 8 days): persistent downregulation
- IC50 (RPMI-8402 cells): 560 nM
- cell growth on treatment for 9 days (SEM cells): significantly inhibited
